Here are results for one compound from paper PMC10544575, “Inhibitory mechanism of vortioxetine on CYP450 enzymes in human and rat liver microsomes” (Frontiers in Pharmacology, 2023).

For one series, the target named is CYP2C19 (Homo sapiens, UniProt P33261). The series can be described thus: Reversible inhibition kinetics (Lineweaver-Burk), CYP2C19 in HLMs. It counts as in vitro ADME. To be noted: mephenytoin. Also noted: 0.20 mg/mL HLMs; from tissue; host or cells: human liver microsomes. As for the experimental part:
(§1) The components of the incubation system were as follows: 0.20 mg/mL HLMs or 0.20 mg/mL RLMs, 0.1 M Tris-HCl, vortioxetine, and the probe substrates of each enzyme. In the study of Km’s (Michaelis–Menten constant) experiment, midazolam (1, 2, 5, 10, 20, 50 and 100 μM in HLMs and RLMs) corresponded to CYP3A4/3A; bupropion (10, 20, 50, 100, 200, 500, 1,000 and 2000 μM in HLMs; 1, 2, 5, 10, 20, 50, 100 and 200 μM in RLMs) corresponded to CYP2B6/2B; amodiaquine (5, 10, 20, 50, 100 and 200 μM in HLMs; 10, 20, 50, 100, 200, 500 μM in RLMs) corresponded to CYP2C8/CYP2C-1; losartan (1, 2, 5, 10, 20, 50, 100, 200 μM in HLMs; 10, 20, 50, 100, 200, 500 and 1,000 μM in RLMs) corresponded to CYP2C9/CYP2C-2; mephenytoin (20, 50, 100, 200, 500 and 1,000 μM in HLMs; 5, 10, 20, 50, 100, 200, 500 and 1,000 μM in RLMs) corresponded to CYP2C19/CYP2C-3; and dextromethorphan (1, 2, 5, 10, 20, 50 and 100 μM in HLMs and RLMs) corresponded to CYP2D6/CYP2D. […]
(§2) All experiments results were detected by UPLC-MS/MS, which equipped with a Waters Acquity UPLC system (Milford, MA, United States) and a Waters Xevo TQ-S triple quadrupole tandem mass spectrometer with an electrospray ionization source (Milford, MA, United States). […]
(§3) IC50 values and enzyme kinetic parameters were calculated by Graphpad Prism 6.0 (GraphPad software Inc., CA, United States). […] Data for each experiment were expressed as mean ± SD (n = 3).

The next series deals with T1, CYP2B6 (Homo sapiens, UniProt P20813).
T1 sequence (P20813 1-491): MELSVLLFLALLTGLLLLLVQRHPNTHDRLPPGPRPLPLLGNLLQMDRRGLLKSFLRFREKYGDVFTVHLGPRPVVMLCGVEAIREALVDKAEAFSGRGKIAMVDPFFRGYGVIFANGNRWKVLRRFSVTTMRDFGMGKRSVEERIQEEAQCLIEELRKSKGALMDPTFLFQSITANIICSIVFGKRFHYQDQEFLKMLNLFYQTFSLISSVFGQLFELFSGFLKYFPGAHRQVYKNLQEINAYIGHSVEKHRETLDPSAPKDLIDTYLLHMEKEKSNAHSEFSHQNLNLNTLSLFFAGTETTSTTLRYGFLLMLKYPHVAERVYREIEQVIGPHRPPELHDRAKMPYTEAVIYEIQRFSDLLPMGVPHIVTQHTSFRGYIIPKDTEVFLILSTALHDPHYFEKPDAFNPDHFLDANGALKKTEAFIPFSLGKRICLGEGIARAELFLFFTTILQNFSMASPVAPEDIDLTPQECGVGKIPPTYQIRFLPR
The series can be described thus: IC50 of vortioxetine on CYP2B6 (bupropion) in HLMs. In kind it is in vitro ADME. Also noted: 0.20 mg/mL HLMs; from tissue; host or cells: human liver microsomes. As for the experimental part: as §1, §2, §3

Entries after “also recorded” stand apart in the source; their conditions may differ. Like-named read-outs stand apart in the source and are kept apart here.

Usually Ki stands for a measure of affinity in units of concentration, obtained from inhibition or displacement. Low values mean higher affinity, high ones lower affinity. A word on the IC50: it is the concentration that inhibits the measured activity by half.

CYP2C19, sequence (P33261 whole entry): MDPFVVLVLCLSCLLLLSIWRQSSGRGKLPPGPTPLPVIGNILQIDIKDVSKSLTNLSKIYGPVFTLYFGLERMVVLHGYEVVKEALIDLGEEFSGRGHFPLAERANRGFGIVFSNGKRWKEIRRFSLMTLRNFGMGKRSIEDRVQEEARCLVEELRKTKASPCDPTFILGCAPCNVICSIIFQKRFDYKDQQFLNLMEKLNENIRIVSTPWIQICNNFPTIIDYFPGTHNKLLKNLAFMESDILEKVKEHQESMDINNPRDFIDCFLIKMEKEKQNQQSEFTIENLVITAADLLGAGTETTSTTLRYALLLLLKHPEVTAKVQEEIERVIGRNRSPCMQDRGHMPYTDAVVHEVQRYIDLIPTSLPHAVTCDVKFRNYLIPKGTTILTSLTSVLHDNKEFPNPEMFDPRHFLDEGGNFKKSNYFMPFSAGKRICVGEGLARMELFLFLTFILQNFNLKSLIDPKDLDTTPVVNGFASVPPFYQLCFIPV

`Cc1ccc(Sc2ccccc2N2CCNCC2)c(C)c1` [vortioxetine] returned a Ki at CYP2C19 of 2.17 µM. In addition, the Inhibition type entry on CYP2C19 (Lineweaver-Burk plot) is “competitively inhibited; also recorded: competitive inhibition”. The IC50 is 8.94 µM on CYP2B6 (HLMs 0.20 mg/mL, bupropion at Km, 37°C, 30 min, read-out: IC50) and 1 to 10 µM on CYP2B6 (inhibitory effect (strength judged by IC50), HLMs).
